Source: patent publication US4678800A, “Gamma-r-glutamoyl derivatives” (Ciba-Geigy Corporation, priority 1984, dated 1987)

What was measured:
[1] = test system: spontaneous hypertensive rat; experiment: in vivo lowering effect on blood pressure and heart rate in hypertensive rats; conditions: dose of 10 mg/kg p.o. or lower
Description: This is demonstrable by in vivo or in vitro animal tests, using advantageously mammals, e.g., rats, cats, dogs or isolated organs thereof, as test objects. The animals may either be normotensive or hypertensive e.g., genetically hypertensive rats, or renal hypertensive rats and dogs, and sodium-depleted dogs. Said compounds can be applied to them enterally or parenterally, advantageously orally or intravenously, for example within gelatin capsules or in the form of starch suspensions or aqueous solutions, respectively. The applied dosage may range between about 0.01 and 50 mg/kg/day, preferably between about 0.1 and 25 mg/kg/day, advantageously between about 0.1 and 10 mg/kg/day.
The in vivo lowering effect on the blood pressure is recorded either directly by means of a catheter, for example placed in the dog's femoral artery, or indirectly by sphygmomanometry at the rat's tail, and a transducer, expressing the blood pressure prior and after dosing in mm Hg. Thus, for example, the representative members of the compounds of this invention, illustrated by the examples herein, are effective in hypertensive rats and at p.o. doses as low or lower than 10 mg/kg/day.

[2] = biological target: T1, angiotensin-converting enzyme isolated from lungs of adult male rabbits (Oryctolagus cuniculus, UniProt P12822); experiment: in vitro inhibition of the angiotensin-converting enzyme (hippuryl-histidyl-leucine substrate); format: biochemical; conditions: rabbit lung enzyme, 37° for 30 minutes
T1 construct: angiotensin-converting enzyme isolated from lungs of adult male rabbits; from tissue; host or cells: lungs of adult male rabbits
T1 sequence (P12822 34-1310): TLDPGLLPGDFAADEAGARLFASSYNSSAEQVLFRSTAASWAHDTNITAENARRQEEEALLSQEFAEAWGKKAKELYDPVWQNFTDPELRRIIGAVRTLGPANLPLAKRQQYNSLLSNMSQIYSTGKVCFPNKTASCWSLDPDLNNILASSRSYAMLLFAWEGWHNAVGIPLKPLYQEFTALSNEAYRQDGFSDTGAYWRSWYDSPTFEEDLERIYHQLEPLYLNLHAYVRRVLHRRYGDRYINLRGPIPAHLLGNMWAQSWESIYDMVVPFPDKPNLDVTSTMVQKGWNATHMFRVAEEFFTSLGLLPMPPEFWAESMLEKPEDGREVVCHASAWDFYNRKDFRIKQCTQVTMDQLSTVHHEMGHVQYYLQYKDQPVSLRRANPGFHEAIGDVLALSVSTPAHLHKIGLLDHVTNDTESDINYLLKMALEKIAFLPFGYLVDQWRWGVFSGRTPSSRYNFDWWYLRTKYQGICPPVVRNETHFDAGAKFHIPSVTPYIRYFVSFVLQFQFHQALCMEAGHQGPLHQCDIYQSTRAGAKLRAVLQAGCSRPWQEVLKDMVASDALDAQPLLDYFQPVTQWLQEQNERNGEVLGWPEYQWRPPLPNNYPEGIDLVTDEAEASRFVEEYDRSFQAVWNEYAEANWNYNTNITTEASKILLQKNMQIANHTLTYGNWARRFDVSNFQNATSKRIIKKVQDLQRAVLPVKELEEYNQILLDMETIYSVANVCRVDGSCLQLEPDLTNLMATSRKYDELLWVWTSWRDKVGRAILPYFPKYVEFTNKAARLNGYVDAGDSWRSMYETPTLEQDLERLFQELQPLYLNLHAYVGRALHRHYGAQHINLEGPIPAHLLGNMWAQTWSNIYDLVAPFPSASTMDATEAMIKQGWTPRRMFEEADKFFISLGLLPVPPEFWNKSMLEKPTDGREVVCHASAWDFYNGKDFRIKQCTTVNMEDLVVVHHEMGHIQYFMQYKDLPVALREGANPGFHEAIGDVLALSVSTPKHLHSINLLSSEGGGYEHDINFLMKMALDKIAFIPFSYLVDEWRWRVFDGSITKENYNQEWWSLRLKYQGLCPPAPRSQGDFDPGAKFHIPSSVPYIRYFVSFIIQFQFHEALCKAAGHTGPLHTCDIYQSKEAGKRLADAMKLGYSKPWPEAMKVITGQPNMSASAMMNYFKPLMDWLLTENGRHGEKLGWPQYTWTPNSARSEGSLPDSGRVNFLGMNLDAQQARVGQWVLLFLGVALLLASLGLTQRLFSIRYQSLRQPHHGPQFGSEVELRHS
Description: Biophys. Acta 293, 451 (1973). According to this method, said compounds are dissolved at about 1 mM concentrations in phosphate buffer, externally cooled with ice. To these solutions various μl of histidyl-leucine in phosphate buffer are added, followed by 100 μl of 5 mM hippuryl-histidyl-leucine in phosphate buffer and 50 μl of the angiotensin-converting enzyme isolated from lungs of adult male rabbits, which is freshly prepared in Tris buffer containing potassium and magnesium chloride, as well as sucrose. Said solutions are incubated at 37° for 30 minutes and combined with 0.75 m- of 0.6 N aqueous sodium hydroxide to stop further reaction. Then 100 μl of o-phthalaldehyde are added at room temperature, and 10 minutes later 100 μl of 6N hydrochloric acid are also added. These samples are read against water in a spectrophotometer set at 360 nm, and the optical densities thereof estimated. They are corrected for the standard curve via a conversion factor expressing nanomoles of histidyl-leucine formed during said 30 minute incubation period. The results are plotted against drug concentration to determine the IC50, i.e., the drug concentration which gives half the activity of the control sample containing no drug. Again, said representative members of the compounds of this invention are very effective in this in vitro test system.

[3] = test system: angiotensin I converting enzyme; experiment: inhibition of the angiotensin I pressor response in anesthetized normotensive rats; format: in vivo, rat; conditions: intravenous dose as low as 0.1 mg/kg
Description: The enzyme renin, normally causes specific hydrolysis of the circulating protein renin-substrate. This hydrolysis generates angiotensin I, which is further hydrolyzed by the action of said converting enzyme to the potent vasoconstrictor angiotensin II. The inhibition of said enzyme prevents the generation of angiotensin II from I and, therefore, attenuates any pressure response following an angiotensin I challenge.
The corresponding in vivo test is performed with male, normotensive rats, which are anesthetized with 100-120 mg/kg i.p. of sodium ethyl-(1-methylpropyl)-malonylthiourea. A femoral artery and saphenous vein are cannulated for direct blood pressure measurement and i.v. administration of angiotensin I and compounds of this invention. After the basal blood pressure is stabilized, pressor responses to 3 challenges of 0.33 μg/kg of angiotension I i.v. , in 5 minute intervals, are obtained. Such pressure responses are again obtained 5, 10, 15, 30 and 60 minutes after either i.v. or p.o. administration (stomach tube) of the compounds to be tested, and compared with the initial responses. Any observed decrease of said pressor response is an indication of angiotensin I converting enzyme inhibition, ranging up to 80% or greater after 10 mg/kg i.v., or lower doses, which decrease may be sustained up to 60 minutes.

Row | SMILES | decrease of heart rate [1] | lowering of blood pressure [1] | IC50 [2] | inhibition of the pressor response following angiotensin I challenge [3]
1 | O=C(N[C@H](CCC(=O)N1c2ccccc2C[C@H]1C(=O)O)C(=O)O)c1cccnc1 [Example 5, 1-(N-Nicotinoyl-γ-R-glutamyl)-indoline-2S-carboxylic acid] | decrease the heart rate | lower blood pressure | – | –
2 | O=C(N[C@H](CCC(=O)N1c2ccccc2C[C@H]1C(=O)O)C(=O)O)OCc1ccccc1 [Example 1, 1-(N-Benzyloxycarbonyl-γ-R-glutamyl)indoline-2-S-carboxylic acid] | decrease the heart rate | lower blood pressure | ~7 nM | about 70%
